Assay results as given in US20240246918A1, “COMPOUNDS AND COMPOSITIONS AS EIF4E INHIBITORS AND THE USES THEREOF” (Ribometrix, Inc., priority 2022, published 2024).

Tests used:
[1] = test system: cyclin D1 protein levels in COLO 205 cells; experiment: Cyclin D1 cellular inhibition assay (HTRF, 6 hours); format: cell-based; conditions: Homo sapiens, COLO 205, 6 h, 6 hours of compound treatment, Cyclin D1 protein levels by HTRF, read-out: COLO 205 6 h Cyclin D1 TR-FRET IC50
Description: The effect of compound treatment on cyclin D1 protein levels in COLO 205 cells was assessed, as follows. Test compound plates were prepared with a Tecan D300e Digital Dispenser as 11-point concentration-response curves with a final DMSO concentration of 1%. COLO 205 (ATCC, CCL-222) colorectal tumor cells were seeded to assay-ready plates in RPMI-1640 medium supplemented with 10% FBS at 20,000 cells in a volume of 6 microliters per well. After 6 hours of compound treatment, cells were lysed and Cyclin D1 protein levels were assessed by an HTRF assay (PerkinElmer #64CYCD1ITPEG), according to the manufacturer's protocol. Time-resolved fluorescence was measured using a Clariostar Plus microplate reader (BMG Labtech) or equivalent. After normalization to the average of DMSO control and maximum inhibition control wells, concentration-response data were plotted and standard 4-parameter curve fitting (GraphPad Prism v9.4.1) was utilized to determine IC50 values.

[2] = target: T1, human eIF4E protein (Homo sapiens, UniProt P06730); experiment: Biochemical competitive binding assay (TR-FRET competition, EDA-m7GDP-ATTO-647N probe); conditions: read-out: hEIF4E TR-FRET IC50
T1 construct: purchased Novus NBP-45314
In short: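 IC50 values come from 4-parameter fits of the normalized 665/620 nm TR-FRET ratio. Compound was first incubated 15 min with 4 nM recombinant His-eIF4E bound to 2.5 nM Eu-anti-His antibody, then 15 min with 5 nM m7GDP-ATTO-647N tracer, in pH 7.5 HEPES buffer with 100 mM KCl, Tween-20 and BSA.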

[3] = test system: COLO 205 colorectal tumor cells; experiment: Tumor cell viability inhibition assay (CellTiter-Glo 2.0, 72 hours); format: cell-based; conditions: Homo sapiens, COLO 205, 72 h, COLO 205 cell viability
In short: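 IC50 derived by 4-parameter fitting after normalizing luminescence to DMSO and max-inhibition wells. Compounds tested as 11 concentrations in 4-fold steps on COLO 205 cells seeded at 1500 per well in RPMI-1640/10% FBS; ATP content measured with CellTiter-Glo 2.0 after 72 h.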

T1 sequence (P06730 whole entry): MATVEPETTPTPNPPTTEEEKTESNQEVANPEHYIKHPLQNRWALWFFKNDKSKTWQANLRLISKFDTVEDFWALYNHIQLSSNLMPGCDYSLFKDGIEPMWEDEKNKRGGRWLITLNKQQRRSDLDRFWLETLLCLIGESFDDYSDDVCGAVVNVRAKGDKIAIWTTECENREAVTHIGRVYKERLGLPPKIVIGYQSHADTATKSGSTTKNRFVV

SMILES	IC50 [1] [µM]	IC50 [2] [µM]	IC50 [3] [µM]
Cc1cc(-c2cc(Cl)ccc2OCCn2c(C)nc3c(c2=O)CC(N2CC4(CCC(F)(F)CC4)C2)CC3)c2scc(C(=O)O)c2n1 (stereo not drawn) [Compound 161]	< 5	< 0.1	< 5
Cc1cc(-c2cc(Cl)ccc2OCCn2c(C)nc3c(c2=O)CC(N2CCC(C(F)(F)F)CC2)CC3)c2scc(C(=O)O)c2n1 (stereo not drawn) [Compound 163]	< 5	< 0.1	< 5
Cc1cc(-c2cc(Cl)ccc2OCCn2c(C)nc3c(c2=O)CC(N2CCC4(CCC(F)(F)CC4)C2)CC3)c2scc(C(=O)O)c2n1 (stereo not drawn) [Compound 170]	< 5	< 0.1	< 5
Cc1cc(-c2cc(Cl)ccc2OCCn2c(C)nc3c(c2=O)CC(N(C)Cc2cccc(N)n2)CC3)c2scc(C(=O)O)c2n1 (stereo not drawn) [Compound 173]	> 20	< 0.1	5 to 20
Cc1cc(-c2cc(Cl)ccc2OCCn2c(C)nc3c(c2=O)CC(N2CCC4(CC2)CC4(F)F)CC3)c2scc(C(=O)O)c2n1 (stereo not drawn) [Compound 174]	< 5	< 0.1	< 5
Cc1cc(-c2cc(Cl)ccc2OCCn2c(C)nc3c(c2=O)CC(N2C[C@@H]4CC(F)(F)C[C@@H]4C2)CC3)c2scc(C(=O)O)c2n1 (stereo partly drawn) [Compound 175]	< 5	< 0.1	< 5
Cc1cc(-c2cc(Cl)ccc2OCCn2c(C)nc3c(c2=O)CC(N2CCC(OC(F)(F)F)CC2)CC3)c2scc(C(=O)O)c2n1 (stereo not drawn) [Compound 178]	< 5	< 0.1	< 5
Cc1cc(-c2cc(Cl)ccc2OCCn2c(C)nc3c(c2=O)CC(N2CCC(OC4CC4)CC2)CC3)c2scc(C(=O)O)c2n1 (stereo not drawn) [Compound 179]	< 5	< 0.1	< 5
Cc1csc(CN(C)C2CCc3nc(C)n(CCOc4ccc(Cl)cc4-c4cc(C)nc5c(C(=O)O)csc45)c(=O)c3C2)n1 (stereo not drawn) [Compound 182]	< 5	< 0.1	< 5
Cc1cc(-c2cc(Cl)ccc2OCCn2c(C)nc3c(c2=O)CC(N(C)Cc2cnc(C)s2)CC3)c2scc(C(=O)O)c2n1 (stereo not drawn) [Compound 185]	< 5	< 0.1	< 5

The next lines start with the values.

IC50 [1] [µM]	IC50 [2] [µM]	IC50 [3] [µM]	SMILES
< 5	< 0.1	< 5	Cc1cc(-c2cc(Cl)ccc2OCCn2c(C)nc3c(c2=O)CC(N2CC4(CC=C(F)CC4)C2)CC3)c2scc(C(=O)O)c2n1 (stereo not drawn) [Compound 162]
< 5	< 0.1	< 5	Cc1cc(-c2cc(Cl)ccc2OCCn2c(C)nc3c(c2=O)CC(N2CCc4ncsc4C2)CC3)c2scc(C(=O)O)c2n1 (stereo not drawn) [Compound 164]
< 5	< 0.1	< 5	Cc1cc(-c2cc(Cl)ccc2OCCn2c(C)nc3c(c2=O)CC(N2CCc4cccnc4C2)CC3)c2scc(C(=O)O)c2n1 (stereo not drawn) [Compound 165]
< 5	< 0.1	< 5	Cc1cc(-c2cc(Cl)ccc2OCCn2c(C)nc3c(c2=O)CC(N2CCc4ccncc4C2)CC3)c2scc(C(=O)O)c2n1 (stereo not drawn) [Compound 171]
< 5	< 0.1	< 5	Cc1cc(-c2cc(Cl)ccc2OCCn2c(C)nc3c(c2=O)CC(N2CC4C(C2)C4(F)F)CC3)c2scc(C(=O)O)c2n1 (stereo not drawn) [Compound 172]
< 5	< 0.1	< 5	Cc1cc(-c2cc(Cl)ccc2OCCn2c(C)nc3c(c2=O)CC(N2CC4CCC(C4)C2)CC3)c2scc(C(=O)O)c2n1 (stereo not drawn) [Compound 176]
< 5	< 0.1	< 5	Cc1cc2c(cn1)CCN(C1CCc3nc(C)n(CCOc4ccc(Cl)cc4-c4cc(C)nc5c(C(=O)O)csc45)c(=O)c3C1)C2 (stereo not drawn) [Compound 177]
< 5	< 0.1	< 5	Cc1cc(-c2cc(Cl)ccc2OCCn2c(C)nc3c(c2=O)CC(N2CCc4ncccc4C2)CC3)c2scc(C(=O)O)c2n1 (stereo not drawn) [Compound 180]
< 5	< 0.1	< 5	Cc1cc(-c2cc(Cl)ccc2OCCn2c(C)nc3c(c2=O)CC(N2CCc4sccc4C2)CC3)c2scc(C(=O)O)c2n1 (stereo not drawn) [Compound 181]
